Experimental data reported in the NIST ThermoML archive (doi:10.1016/j.jct.2011.11.023).
Numbers after ± are expanded uncertainties.

Experiments:
[1] = 298 K; 101.33 kPa; Crystal 2; X-ray diffraction
[2] = Solid-liquid equilibrium temperature; details: 101.3 kPa, DSC
[3] = Molar enthalpy of transition or fusion; details: DSC

With O=C(O)c1cccnc1 [3-carboxylpyridine] the mass density [1] was 1471 ± 2 kg/m3, the Solid-liquid equilibrium temperature ([2]; Crystal 1) was 507 ± 2 K and the Solid-liquid equilibrium temperature ([2]; Crystal 2) was 453.6 ± 0.3 K. For the same compound, the “Molar enthalpy of transition or fusion” value ([3]; Crystal 1) was 27.7 ± 0.8 kJ/mol and the “Molar enthalpy of transition or fusion” value ([3]; Crystal 2) was 1.29 ± 0.13 kJ/mol.
